Non-standard residues stand in square brackets, D forms with d. Residues, ends and D or L forms follow the SMILES beside them. Nle = CCCC[C@H](N)C(=O)O
How the values were obtained:
[1] = tested on: PTH-stimulated biologic responses; conditions: cited from earlier work
[2] = tested on: cultured human keratinocytes; experiment: Keratinocyte culture: counts of total cells, basal cells and cornified envelopes; type: cell-based; conditions: for total number of basal cells: one week of dosing; for proliferation and terminal differentiation of cultured human keratinocytes (conclusion from the results): peptide by itself
Experimental: Keratinocytes were grown in culture as follows. NIH 3T3 cells were plated at 0.5×10^5 cells per 35-mm tissue-culture dish, and two days later were lethally irradiated with a cobalt-60 source (5000 rads). Keratinocytes were obtained from neonatal foreskin after overnight trypsinization at 4° C. and treatment with 0.02% EDTA. Keratinocytes were plated in 2 ml of serum-free medium per dish on the lethally irradiated 3T3 cells. Each experiment was performed on primary or secondary keratinocyte cultures obtained from different skin samples.
In addition, 1,25-(OH)2 D3 was tested, alone and in combination with PTH (7-34), and PTH (1-34) and PTH (7-34) were tested together.
Beginning at one week in culture, groups of triplicate plates of keratinocytes were incubated with the aforementioned compounds or vehicle alone. After one week of dosing, the medium was removed from each culture and centrifuged, and the pellet was resuspended for the counting of the desquamated floater cells. A hemacytometer was used to count the different cell types under a phase-contrast microscope. The attached cells were then trypsinized for 30-40 min with 0.1 EDTA and 0.1% trypsin and then neutralized with medium. The keratinocytes were pelleted and resuspended in a known volume of medium. Duplicate aliquots were taken for counting the basal (small, rounded) and squamous (larger, irregular-shaped, flattened) cells. The remaining cells were pelleted and treated with 10 mM Tris-HCl (pH 7.4) with 1% beta-mercaptoethanol and 1% sodium dodecyl sulfate (SDS) at room temperature for 10 min. Only cells with cornified envelopes were present after this treatment.
Each culture was thus evaluated for its total cell content, number of basal cells, and cornified envelopes, as described above.

[3] = tested on: PTH-mediated elevation of plasma calcium; conditions: cited from earlier work
[4] = tested on: wounds made through the skin with a 6 mm dermal biopsy punch; experiment: In vivo skin punch assay; design: species or system Sprague-Dawley rats; conditions: rats, 2.0 μg topically in normal saline, immediately after biopsy and each day for 3 days, FIG. 8
Experimental: Male Sprague-Dawley rats were anesthetized by intraperitoneal injection of sodium pentobarbital, their dorsal skin shaved, and wounds made through the skin with a 6 mm dermal biopsy punch. Immediately after the biopsy, and each subsequent day for 3 days, groups of rats received topically 2.0 μg of human PTH (1-34) in normal saline or human PTH (7-34) in normal saline; a control group received normal saline without peptide. Four rats from each group were killed by asphyxiation in a chamber of carbon dioxide, and the extent of wound healing was evaluated as follows. Wounds were photographed with the wound surface perpendicular to the axis of the lens. After development of the film, wound images were projected on to paper at a fixed distance, traced with a pencil, and cut out with sharp scissors. The relative sizes of the wounds were assessed by weighing the cut-out paper tracings. Percent healing was calculated from the average decrease in wound area for each group.

[5] = tested on: canine adenylate cyclase system; conditions: cited from earlier work
psoriasis = conditions: provided either orally or topically; cited from earlier work
[6] = PTH (7-34) together with the agonist
[7] = peptide alone at 10^-8 M and 10^-7 M

CCCC[C@H](NC(=O)[C@H](CO)NC(=O)[C@H](CO)NC(=O)[C@H](CC(C)C)NC(=O)[C@H](Cc1c[nH]cn1)NC(=O)[C@H](CCCCN)NC(=O)CNC(=O)[C@H](CC(C)C)NC(=O)[C@H](CC(N)=O)NC(=O)[C@H](Cc1c[nH]cn1)NC(=O)[C@H](CCCC)NC(=O)[C@H](Cc1ccccc1)NC(=O)[C@H](CCC(N)=O)NC(=O)[C@@H](NC(=O)[C@H](CCC(=O)O)NC(=O)[C@@H](N)CO)[C@@H](C)CC)C(=O)N[C@@H](CCC(=O)O)C(=O)N[C@@H](CCCNC(=N)N)C(=O)N[C@H](C(=O)N[C@@H](CCC(=O)O)C(=O)N[C@@H](Cc1c[nH]c2ccccc12)C(=O)N[C@@H](CC(C)C)C(=O)N[C@@H](CCCNC(=N)N)C(=O)N[C@@H](CCCCN)C(=O)N[C@@H](CCCCN)C(=O)N[C@@H](CC(C)C)C(=O)N[C@@H](CCC(N)=O)C(=O)N[C@@H](CC(=O)O)C(=O)N[C@H](C(=O)N[C@@H](Cc1c[nH]cn1)C(=O)N[C@@H](CC(N)=O)C(=O)N[C@@H](Cc1ccc(O)cc1)C(N)=O)C(C)C)C(C)C [PTH (3-34), [Nle^8, Nle^18, Tyr^34] bovine (3-34) PTH amide] (H-SEIQF[Nle]HNLGKHLSS[Nle]ERVEWLRKKLQDVHNY-NH2)
PTH-stimulated biologic responses in vitro [1]: can be inhibited
total number of cornified envelopes, percent of control ([2]; compound alone, FIGS. 6 and 7): increased, in a dose-dependent manner
proliferation of keratinocytes (agonist) ([2]; concentration not given): inhibits proliferation
terminal differentiation of keratinocytes (agonist) ([2]; concentration not given): induces terminal differentiation
total number of basal cells ([2]; peptide alone at 10^-10 and 10^-8 M): significantly decreased
proliferation and terminal differentiation of cultured human keratinocytes (conclusion from the results) [2]: have the same effect as PTH (1-34)

CSCC[C@H](NC(=O)[C@H](CO)NC(=O)[C@H](CO)NC(=O)[C@H](CC(C)C)NC(=O)[C@H](Cc1c[nH]cn1)NC(=O)[C@H](CCCCN)NC(=O)CNC(=O)[C@H](CC(C)C)NC(=O)[C@H](CC(N)=O)NC(=O)[C@H](Cc1c[nH]cn1)NC(=O)[C@H](CCSC)NC(=O)[C@@H](N)Cc1ccccc1)C(=O)N[C@@H](CCC(=O)O)C(=O)N[C@@H](CCCNC(=N)N)C(=O)N[C@H](C(=O)N[C@@H](CCC(=O)O)C(=O)N[C@@H](Cc1c[nH]c2ccccc12)C(=O)N[C@@H](CC(C)C)C(=O)N[C@@H](CCCNC(=N)N)C(=O)N[C@@H](CCCCN)C(=O)N[C@@H](CCCCN)C(=O)N[C@@H](CC(C)C)C(=O)N[C@@H](CCC(N)=O)C(=O)N[C@@H](CC(=O)O)C(=O)N[C@H](C(=O)N[C@@H](Cc1c[nH]cn1)C(=O)N[C@@H](CC(N)=O)C(=O)N[C@@H](Cc1ccc(O)cc1)C(N)=O)C(C)C)C(C)C [PTH (7-34), [Tyr^34] bovine PTH (7-34) amide]
PTH-like agonist activity ([3]; rat, in vivo): devoid of PTH-like agonist activity
PTH-mediated elevation of plasma calcium ([3]; thyroparathyroidectomized rats in vivo): can inhibit
wound healing (percent healing from decrease in wound area) [4]: biologically effective in enhancing wound healing
keratinocyte antiproliferative and terminal differentiation-inducing activities of 1,25(OH)2 D3 ([2]; PTH (7-34) against 1,25(OH)2 D3): blocks
antiproliferative and differentiation-inducing activities of PTH (1-34) and CFF (1-34) (antagonist) ([2]; PTH (7-34) against PTH (1-34) and CFF (1-34)): blocks
response to 1,25(OH)2 D3 (cell numbers) ([2]; PTH (7-34) at 10^-7 M co-incubated with 1,25(OH)2 D3 at 10^-8 M): significantly decreased the response
effect of PTH (1-34) and CFF (1-34) on total number of cells and total number of basal cells ([2]; PTH (7-34) co-incubated with hPTH (1-34) or CFF (1-34)): inhibited the effect
antiproliferative and differentiation-inducing activities of each of 1,25(OH)2 D3, PTH (1-34), and CFF (1-34) (conclusion) [2, 6]: can block
effect of 1,25(OH)2 D3, PTH (1-34), and CFF (1-34) on cornified envelope development [2, 6]: inhibited the effect
total number of cornified envelopes, percent of control [2, 7]: no effect
total number of basal cells [2, 7]: no effect
proliferation and terminal differentiation of cultured human keratinocytes (conclusion from the results) [2]: substantially no effect

Parathyroid Hormone (1-34), Rat [Rat PTH (1-34)]
activity relative to bovine PTH (1-34) [5]: 2-4 fold
activity relative to human PTH (1-34) [5]: 8-10 fold

CC[C@H](C)[C@H](NC(=O)[C@H](CCC(=O)O)NC(=O)[C@H](CO)NC(=O)[C@@H](NC(=O)[C@@H](N)CO)C(C)C)C(=O)N[C@@H](CCC(N)=O)C(=O)N[C@@H](CC(C)C)C(=O)N[C@@H](CCSC)C(=O)N[C@@H](Cc1c[nH]cn1)C(=O)N[C@@H](CC(N)=O)C(=O)N[C@@H](CC(C)C)C(=O)NCC(=O)N[C@@H](CCCCN)C(=O)N[C@@H](Cc1c[nH]cn1)C(=O)N[C@@H](CC(C)C)C(=O)N[C@@H](CC(N)=O)C(=O)N[C@@H](CO)C(=O)N[C@@H](CCSC)C(=O)N[C@@H](CCC(=O)O)C(=O)N[C@@H](CCCNC(=N)N)C(=O)N[C@H](C(=O)N[C@@H](CCC(=O)O)C(=O)N[C@@H](Cc1c[nH]c2ccccc12)C(=O)N[C@@H](CC(C)C)C(=O)N[C@@H](CCCNC(=N)N)C(=O)N[C@@H](CCCCN)C(=O)N[C@@H](CCCCN)C(=O)N[C@@H](CC(C)C)C(=O)N[C@@H](CCC(N)=O)C(=O)N[C@@H](CC(=O)O)C(=O)N[C@H](C(=O)N[C@@H](Cc1c[nH]cn1)C(=O)N[C@@H](CC(N)=O)C(=O)N[C@@H](Cc1ccccc1)C(=O)O)C(C)C)C(C)C [PTH (1-34), Parathyroid Hormone (1-34), Human]
wound healing (percent healing from decrease in wound area) [4]: biologically effective in enhancing wound healing
wound healing (percent healing from decrease in wound area) ([4]; listed as human PTH (1-34)): enhance wound healing
growth of human cultured keratinocytes ([2]; 10^-7 and 10^-8 M): inhibits growth
terminal differentiation of human cultured keratinocytes ([2]; 10^-7 and 10^-8 M): induces terminal differentiation
total number of cornified envelopes, percent of control ([2]; compound alone, FIGS. 6 and 7): increased, in a dose-dependent manner
total number of basal cells [2, 7]: significantly decreased
proliferation and terminal differentiation of cultured human keratinocytes (conclusion from the results) [2]: biologically effective in inhibiting the proliferation of cultured human keratinocytes and inducing terminal differentiation

C=C1/C(=C\C=C2/CCC[C@]3(C)[C@@H]([C@H](C)CC[C@@H](O)C(C)C)CC[C@@H]23)C[C@@H](O)C[C@@H]1O [1,24-dihydroxyvitamin D3]
value in the treatment of psoriasis (psoriasis): of value in the treatment of psoriasis
